According to US12427157B2, “Methods for treatment of diseases involving acidic or hypoxic diseased tissues” (Cybrexa 1, Inc., priority 2018, dated 2025):
Residues, ends and D or L forms follow the SMILES beside them. *: point of attachment. X7 = C[C@@H](COC(=O)NCN1c2cc(F)cc3c(=O)[nH]nc(c23)[C@H](c2ncnn2C)[C@H]1c1ccc(F)cc1)S*; X8 = Cn1ncnc1[C@H]1c2n[nH]c(=O)c3cc(F)cc(c23)N(CNC(=O)OCC2(S*)CCC2)[C@@H]1c1ccc(F)cc1; X4 = C[C@H](COC(=O)NCN1c2cc(F)cc3c(=O)[nH]nc(c23)[C@H](c2ncnn2C)[C@H]1c1ccc(F)cc1)S*; X1 = Cn1ncnc1[C@H]1c2n[nH]c(=O)c3cc(F)cc(c23)N(CNC(=O)OCCS*)[C@@H]1c1ccc(F)cc1

Assays:
PARP = PARP (Homo sapiens, UniProt P09874); test: Enzymatic Assay 2: HT Universal Chemiluminescent PARP Assay of cleaved compounds; details: read-out: IC50 Enzymatic Assay 2; Examples cleaved per Example A (crude cleavage solution); R^8H starting materials as such;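 further: PARP reaction with activated DNA run 1 h at room temperature, product detected via streptavidin-HRP and luminescence endpoint reading on a plate reader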
Experimental: An equal volume of 1×PARP cocktail containing activated DNA was added to each well and the reaction was incubated for one hour at room temperature. The wells were washed twice with 1×PBS+0.1% Triton X-100 and twice with PBS. 50 ul/well of diluted streptavidin-HRP was added and the wells were incubated for one hour at room temperature. The wells were washed twice with 1×PBS+0.1% Triton X-100 and washed twice with PBS. The liquid was 5 removed, 100 ul/well 1:1 PeroxyGlow A/PeroxyGlow B was added and the chemiluminescent readings were measured on a BioTek Cytation 5 plate reader using the luminescence fiber endpoint.

DLD-1 BRCA2−/− cells = test: Growth delay assay; assay type: cell-based, Human; details: pH 7.4, BRCA (−/−) DLD-1, 96 h
Experimental: Cells were plated in 96 well black walled-clear bottom plates (Griener), DLD-1 WT cells at 2500 cells per well, DLD-1 BRCA2−/− at 5000 cells per well, in growth media containing 10% FBS. Cells were allowed to adhere at room temperature for 60 minutes before returning to a 37 C, 5% CO2 incubator. After 24 hours, media was removed and replaced with fresh growth media containing various drug concentrations. Each drug concentration was added in triplicate. Non-drug treated controls contained growth media only. Cells were returned to the incubator. Ninety-six hours after addition of drug, cells were fixed with 4% paraformaldehyde for 20 minutes and stained with Hoechst at 1 ug/mL. The plates were imaged on a Cytation 5 auto imager (BioTek) and cells were counted using CellProfiler (http://cellprofiler.org). The percent cell growth delay was calculated and data plotted using GraphPad Prism.

Chain of PARP (P09874 whole entry): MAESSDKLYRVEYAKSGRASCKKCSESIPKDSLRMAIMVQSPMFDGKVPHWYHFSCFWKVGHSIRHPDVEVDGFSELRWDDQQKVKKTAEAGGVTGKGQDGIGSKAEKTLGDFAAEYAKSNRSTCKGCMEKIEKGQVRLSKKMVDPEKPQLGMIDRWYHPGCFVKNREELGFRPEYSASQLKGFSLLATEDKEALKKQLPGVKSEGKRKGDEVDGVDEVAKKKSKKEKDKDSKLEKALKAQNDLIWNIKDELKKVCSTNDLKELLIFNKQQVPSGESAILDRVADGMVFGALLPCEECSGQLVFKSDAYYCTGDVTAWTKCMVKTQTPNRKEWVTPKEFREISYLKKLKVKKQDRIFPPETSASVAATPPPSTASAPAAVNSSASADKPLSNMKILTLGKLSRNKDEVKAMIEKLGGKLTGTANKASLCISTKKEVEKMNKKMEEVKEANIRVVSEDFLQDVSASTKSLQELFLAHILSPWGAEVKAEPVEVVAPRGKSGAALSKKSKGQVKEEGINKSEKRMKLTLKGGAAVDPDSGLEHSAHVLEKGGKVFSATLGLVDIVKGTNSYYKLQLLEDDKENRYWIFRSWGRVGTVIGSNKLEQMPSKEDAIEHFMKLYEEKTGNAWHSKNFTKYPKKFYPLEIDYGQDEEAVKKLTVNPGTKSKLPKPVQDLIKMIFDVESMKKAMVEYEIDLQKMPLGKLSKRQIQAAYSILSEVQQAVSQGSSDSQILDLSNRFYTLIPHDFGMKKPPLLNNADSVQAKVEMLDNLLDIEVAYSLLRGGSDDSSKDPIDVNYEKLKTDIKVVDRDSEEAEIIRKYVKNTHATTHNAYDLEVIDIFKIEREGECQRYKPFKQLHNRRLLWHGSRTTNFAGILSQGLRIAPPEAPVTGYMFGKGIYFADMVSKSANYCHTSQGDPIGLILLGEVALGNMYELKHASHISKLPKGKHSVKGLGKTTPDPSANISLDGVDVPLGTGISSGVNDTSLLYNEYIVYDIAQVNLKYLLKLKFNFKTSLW

| SMILES | IC50 (PARP) | IC50 (DLD-1 BRCA2−/− cells) |
| --- | --- | --- |
| CC[C@H](C)[C@H](NC(=O)[C@@H]1CCCN1C(=O)[C@H](CC(N)=O)NC(=O)[C@H](CCC(N)=O)NC(=O)[C@H](CCC(=O)O)NC(=O)[C@H](C)N)C(=O)N[C@@H](Cc1ccc(O)cc1)C(=O)N[C@@H](Cc1c[nH]c2ccccc12)C(=O)N[C@@H](C)C(=O)N[C@@H](CCCNC(=N)N)C(=O)N[C@@H](Cc1ccc(O)cc1)C(=O)N[C@@H](C)C(=O)N[C@@H](CC(=O)O)C(=O)N[C@@H](Cc1c[nH]c2ccccc12)C(=O)N[C@@H](CC(C)C)C(=O)N[C@@H](Cc1ccccc1)C(=O)N[C@H](C(=O)N[C@H](C(=O)N1CCC[C@H]1C(=O)N[C@@H](CC(C)C)C(=O)N[C@@H](CC(C)C)C(=O)N[C@@H](CC(C)C)C(=O)N[C@@H](CC(C)C)C(=O)N[C@@H](CC(=O)O)C(=O)N[C@@H](CC(C)C)C(=O)N[C@@H](C)C(=O)N[C@@H](CC(C)C)C(=O)N[C@@H](CC(C)C)C(=O)N[C@H](C(=O)N[C@@H](CC(=O)O)C(=O)N[C@@H](C)C(=O)N[C@@H](CC(=O)O)C(=O)N[C@@H](CCC(=O)O)C(=O)N[C@@H](CSSCCOC(=O)NCN1c2cc(F)cc3c(=O)[nH]nc(c23)[C@H](c2ncnn2C)[C@H]1c1ccc(F)cc1)C(=O)NCC(=O)O)C(C)C)[C@@H](C)O)[C@@H](C)O [Example 12] (H-AEQNPIYWARYADWLFTTPLLLLDLALLVDADEC(X1)G-OH; N-terminus and C-terminus assumed) | 0.47 nM | 162 nM |
| CC[C@H](C)[C@H](NC(=O)[C@@H]1CCCN1C(=O)[C@H](CC(N)=O)NC(=O)[C@H](CCC(N)=O)NC(=O)[C@H](CCC(=O)O)NC(=O)[C@H](C)N)C(=O)N[C@@H](Cc1ccc(O)cc1)C(=O)N[C@@H](Cc1c[nH]c2ccccc12)C(=O)N[C@@H](C)C(=O)N[C@@H](CCCNC(=N)N)C(=O)N[C@@H](Cc1ccc(O)cc1)C(=O)N[C@@H](C)C(=O)N[C@@H](CC(=O)O)C(=O)N[C@@H](Cc1c[nH]c2ccccc12)C(=O)N[C@@H](CC(C)C)C(=O)N[C@@H](Cc1ccccc1)C(=O)N[C@H](C(=O)N[C@H](C(=O)N1CCC[C@H]1C(=O)N[C@@H](CC(C)C)C(=O)N[C@@H](CC(C)C)C(=O)N[C@@H](CC(C)C)C(=O)N[C@@H](CC(C)C)C(=O)N[C@@H](CC(=O)O)C(=O)N[C@@H](CC(C)C)C(=O)N[C@@H](C)C(=O)N[C@@H](CC(C)C)C(=O)N[C@@H](CC(C)C)C(=O)N[C@H](C(=O)N[C@@H](CC(=O)O)C(=O)N[C@@H](C)C(=O)N[C@@H](CC(=O)O)C(=O)N[C@@H](CCC(=O)O)C(=O)N[C@@H](CSS[C@@H](C)COC(=O)NCN1c2cc(F)cc3c(=O)[nH]nc(c23)[C@H](c2ncnn2C)[C@H]1c1ccc(F)cc1)C(=O)NCC(=O)O)C(C)C)[C@@H](C)O)[C@@H](C)O [Example 13] (H-AEQNPIYWARYADWLFTTPLLLLDLALLVDADEC(X7)G-OH; N-terminus and C-terminus assumed) | 1 nM | 51 nM |
| CC[C@H](C)[C@H](NC(=O)[C@@H]1CCCN1C(=O)[C@H](CC(N)=O)NC(=O)[C@H](CCC(N)=O)NC(=O)[C@H](CCC(=O)O)NC(=O)[C@H](C)N)C(=O)N[C@@H](Cc1ccc(O)cc1)C(=O)N[C@@H](Cc1c[nH]c2ccccc12)C(=O)N[C@@H](C)C(=O)N[C@@H](CCCNC(=N)N)C(=O)N[C@@H](Cc1ccc(O)cc1)C(=O)N[C@@H](C)C(=O)N[C@@H](CC(=O)O)C(=O)N[C@@H](Cc1c[nH]c2ccccc12)C(=O)N[C@@H](CC(C)C)C(=O)N[C@@H](Cc1ccccc1)C(=O)N[C@H](C(=O)N[C@H](C(=O)N1CCC[C@H]1C(=O)N[C@@H](CC(C)C)C(=O)N[C@@H](CC(C)C)C(=O)N[C@@H](CC(C)C)C(=O)N[C@@H](CC(C)C)C(=O)N[C@@H](CC(=O)O)C(=O)N[C@@H](CC(C)C)C(=O)N[C@@H](C)C(=O)N[C@@H](CC(C)C)C(=O)N[C@@H](CC(C)C)C(=O)N[C@H](C(=O)N[C@@H](CC(=O)O)C(=O)N[C@@H](C)C(=O)N[C@@H](CC(=O)O)C(=O)N[C@@H](CCC(=O)O)C(=O)N[C@@H](CSS[C@H](C)COC(=O)NCN1c2cc(F)cc3c(=O)[nH]nc(c23)[C@H](c2ncnn2C)[C@H]1c1ccc(F)cc1)C(=O)NCC(=O)O)C(C)C)[C@@H](C)O)[C@@H](C)O [Example 14] (H-AEQNPIYWARYADWLFTTPLLLLDLALLVDADEC(X4)G-OH; N-terminus and C-terminus assumed) | 0.5 nM | 72 nM |
| CC(C)C[C@H](NC(=O)[C@H](Cc1ccc(O)cc1)NC(=O)[C@H](C)NC(=O)[C@H](CCCNC(=N)N)NC(=O)[C@H](Cc1c[nH]c2ccccc12)NC(=O)[C@@H]1CCCN1C(=O)[C@H](CC(N)=O)NC(=O)[C@H](CCC(N)=O)NC(=O)[C@H](CC(=O)O)NC(=O)[C@H](CC(=O)O)NC(=O)[C@H](C)N)C(=O)N[C@@H](CC(=O)O)C(=O)N[C@@H](CC(C)C)C(=O)N[C@@H](CC(C)C)C(=O)N[C@@H](Cc1ccccc1)C(=O)N1CCC[C@H]1C(=O)N[C@H](C(=O)N[C@@H](CC(=O)O)C(=O)N[C@H](C(=O)N[C@@H](CC(C)C)C(=O)N[C@@H](CC(C)C)C(=O)N[C@@H](CC(C)C)C(=O)N[C@@H](CC(=O)O)C(=O)N[C@@H](CC(C)C)C(=O)N[C@@H](CC(C)C)C(=O)N[C@@H](Cc1c[nH]c2ccccc12)C(=O)N[C@@H](CSSCCOC(=O)NCN1c2cc(F)cc3c(=O)[nH]nc(c23)[C@H](c2ncnn2C)[C@H]1c1ccc(F)cc1)C(=O)NCC(=O)O)[C@@H](C)O)[C@@H](C)O [Example 16] | 0.61 nM | 84 nM |
| CC(C)C[C@H](NC(=O)[C@H](Cc1ccc(O)cc1)NC(=O)[C@H](C)NC(=O)[C@H](CCCNC(=N)N)NC(=O)[C@H](Cc1c[nH]c2ccccc12)NC(=O)[C@@H]1CCCN1C(=O)[C@H](CC(N)=O)NC(=O)[C@H](CCC(N)=O)NC(=O)[C@H](CC(=O)O)NC(=O)[C@H](CC(=O)O)NC(=O)[C@H](C)N)C(=O)N[C@@H](CC(=O)O)C(=O)N[C@@H](CC(C)C)C(=O)N[C@@H](CC(C)C)C(=O)N[C@@H](Cc1ccccc1)C(=O)N1CCC[C@H]1C(=O)N[C@H](C(=O)N[C@@H](CC(=O)O)C(=O)N[C@H](C(=O)N[C@@H](CC(C)C)C(=O)N[C@@H](CC(C)C)C(=O)N[C@@H](CC(C)C)C(=O)N[C@@H](CC(=O)O)C(=O)N[C@@H](CC(C)C)C(=O)N[C@@H](CC(C)C)C(=O)N[C@@H](Cc1c[nH]c2ccccc12)C(=O)N[C@@H](CC(=O)O)C(=O)N[C@@H](C)C(=O)N[C@@H](CC(=O)O)C(=O)N[C@@H](CCC(=O)O)C(=O)N[C@@H](CSSCCOC(=O)NCN1c2cc(F)cc3c(=O)[nH]nc(c23)[C@H](c2ncnn2C)[C@H]1c1ccc(F)cc1)C(=O)NCC(=O)O)[C@@H](C)O)[C@@H](C)O [Example 17] | 0.41 nM | 50 nM |
| CC[C@H](C)[C@H](NC(=O)[C@@H]1CCCN1C(=O)[C@H](CC(N)=O)NC(=O)[C@H](CCC(N)=O)NC(=O)[C@H](CCC(=O)O)NC(=O)[C@H](C)N)C(=O)N[C@@H](Cc1ccc(O)cc1)C(=O)N[C@@H](Cc1c[nH]c2ccccc12)C(=O)N[C@@H](C)C(=O)N[C@@H](CCCNC(=N)N)C(=O)N[C@@H](Cc1ccc(O)cc1)C(=O)N[C@@H](C)C(=O)N[C@@H](CC(=O)O)C(=O)N[C@@H](Cc1c[nH]c2ccccc12)C(=O)N[C@@H](CC(C)C)C(=O)N[C@@H](Cc1ccccc1)C(=O)N[C@H](C(=O)N[C@H](C(=O)N1CCC[C@H]1C(=O)N[C@@H](CC(C)C)C(=O)N[C@@H](CC(C)C)C(=O)N[C@@H](CC(C)C)C(=O)N[C@@H](CC(C)C)C(=O)N[C@@H](CC(=O)O)C(=O)N[C@@H](CC(C)C)C(=O)N[C@@H](C)C(=O)N[C@@H](CC(C)C)C(=O)N[C@@H](CC(C)C)C(=O)N[C@H](C(=O)N[C@@H](CC(=O)O)C(=O)N[C@@H](C)C(=O)N[C@@H](CC(=O)O)C(=O)N[C@@H](CCC(=O)O)C(=O)N[C@@H](CSSC1(COC(=O)NCN2c3cc(F)cc4c(=O)[nH]nc(c34)[C@H](c3ncnn3C)[C@H]2c2ccc(F)cc2)CCC1)C(=O)NCC(=O)O)C(C)C)[C@@H](C)O)[C@@H](C)O [Example 39] (H-AEQNPIYWARYADWLFTTPLLLLDLALLVDADEC(X8)G-OH; N-terminus and C-terminus assumed) | 3 nM | 104 nM |
| CC(C)C[C@H](NC(=O)[C@H](Cc1ccc(O)cc1)NC(=O)[C@H](C)NC(=O)[C@H](CCCNC(=N)N)NC(=O)[C@H](Cc1c[nH]c2ccccc12)NC(=O)[C@@H]1CCCN1C(=O)[C@H](CC(N)=O)NC(=O)[C@H](CCC(N)=O)NC(=O)[C@H](CC(=O)O)NC(=O)[C@H](CC(=O)O)NC(=O)[C@H](C)N)C(=O)N[C@@H](CC(=O)O)C(=O)N[C@@H](CC(C)C)C(=O)N[C@@H](CC(C)C)C(=O)N[C@@H](Cc1ccccc1)C(=O)N1CCC[C@H]1C(=O)N[C@H](C(=O)N[C@@H](CC(=O)O)C(=O)N[C@H](C(=O)N[C@@H](CC(C)C)C(=O)N[C@@H](CC(C)C)C(=O)N[C@@H](CC(C)C)C(=O)N[C@@H](CC(=O)O)C(=O)N[C@@H](CC(C)C)C(=O)N[C@@H](CC(C)C)C(=O)N[C@@H](Cc1c[nH]c2ccccc12)C(=O)N[C@@H](CSS[C@H](C)COC(=O)NCN1c2cc(F)cc3c(=O)[nH]nc(c23)[C@H](c2ncnn2C)[C@H]1c1ccc(F)cc1)C(=O)NCC(=O)O)[C@@H](C)O)[C@@H](C)O [Example 40] | 1.1 nM | 64 nM |
